Reference: patent US11053204B2, “Pyrimidinyloxy benzene derivatives as herbicides” (FMC Corporation, priority 2015, dated 2021)

What was measured:
Type in all cases: in vivo
[1] = test system: Italian ryegrass (Lolium multiflorum); assay: Test A preemergence, visual injury rating
In short: (§1)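 Visual 0–100 rating (100 = complete control) taken about 10 d post-treatment relative to untreated checks. Preemergence: directed soil spray on sown loam/sand pots. Postemergence: seedlings 2–10 cm, 1–2 leaf. Non-phytotoxic solvent formulation with surfactant.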

[2] = test system: barnyardgrass (Echinochloa crus-galli); assay: Test A preemergence, visual injury rating
In short: as §1

[3] = test system: giant foxtail (Setaria faberii); assay: Test A preemergence, visual injury rating
In short: as §1

[4] = test system: kochia (Kochia scoparia); assay: Test A preemergence, visual injury rating
In short: as §1

[5] = test system: pigweed (Amaranthus retroflexus); assay: Test A preemergence, visual injury rating
In short: as §1

[6] = test system: ragweed (common ragweed, Ambrosia elatior); assay: Test A preemergence, visual injury rating
In short: as §1

[7] = test system: barnyardgrass (Echinochloa crus-galli); assay: Test B flooded paddy test, plant response rating; details: 250 g ai/ha; Flood; scale of 0 to 100 where 0 is no effect and 100 is complete control; 13 to 15 days
In short: (§2)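 Pots were flooded to 3 cm above the soil surface at treatment, compound applied directly to the paddy water, and that depth held throughout. Plants were kept in a greenhouse for 13 to 15 days, then visually rated against untreated controls.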

[8] = test system: ducksalad (Heteranthera limosa); assay: Test B flooded paddy test, plant response rating; details: 250 g ai/ha; Flood; scale of 0 to 100 where 0 is no effect and 100 is complete control; 13 to 15 days
In short: as §2

[9] = test system: rice (Oryza sativa); assay: Test B flooded paddy test, plant response rating; details: 250 g ai/ha; Flood; scale of 0 to 100 where 0 is no effect and 100 is complete control; 13 to 15 days
In short: as §2

[10] = test system: sedge, umbrella (small-flower umbrella sedge, Cyperus difformis); assay: Test B flooded paddy test, plant response rating; details: 250 g ai/ha; Flood; scale of 0 to 100 where 0 is no effect and 100 is complete control; 13 to 15 days
In short: as §2

[11] = test system: blackgrass (Alopecurus myosuroides); assay: Test C preemergence, plant response rating; details: Preemergence
In short: (§3)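 Visual injury score, 0 = no effect, 100 = complete control, assigned against untreated controls after 13 to 15 d in the greenhouse. Compounds were applied in a surfactant-containing non-phytotoxic solvent mix, preemergence to seeded loam/sand or silt loam soil, or postemergence to 1- to 4-leaf plants (2 to 18 cm).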

[12] = test system: corn (Zea mays); assay: Test C preemergence, plant response rating; details: Preemergence
In short: as §3

[13] = test system: crabgrass, large (large crabgrass, Digitaria sanguinalis); assay: Test C preemergence, plant response rating; details: Preemergence
In short: as §3

[14] = test system: foxtail, giant (giant foxtail, Setaria faberii); assay: Test C preemergence, plant response rating; details: Preemergence
In short: as §3

[15] = test system: oilseed rape (Brassica napus); assay: Test C preemergence, plant response rating; details: Preemergence
In short: as §3

[16] = test system: ragweed (common ragweed, Ambrosia elatior); assay: Test C preemergence, plant response rating; details: Preemergence
In short: as §3

[17] = test system: ryegrass, Italian (Italian ryegrass, Lolium multiflorum); assay: Test C preemergence, plant response rating; details: Preemergence
In short: as §3

[18] = test system: soybean (Glycine max); assay: Test C preemergence, plant response rating; details: Preemergence
In short: as §3

[19] = 31 g ai/ha, 0 to 100 scale, 0 no effect, 100 complete control
[20] = 125 g ai/ha, 0 to 100 scale (0 no effect, 100 complete control)

## FC(F)(F)CCCc1c(Br)cccc1Oc1ncc(Cl)cn1 [Compound 89]
[1]; [19]
  Plant response rating, Ryegrass, Italian: 0
[1]; [20]
  Ryegrass, Italian plant response rating: 20
[2]; [19]
  Plant response rating, Barnyardgrass: 20
[2]; [20]
  Barnyardgrass plant response rating: 90
[3]; [19]
  Plant response rating, Foxtail, Giant: 10
[3]; [20]
  Foxtail, Giant plant response rating: 50
[4]; [19]
  Plant response rating, Kochia: 10
[4]; [20]
  Kochia plant response rating: 50
[5]; [19]
  Plant response rating, Pigweed: 10
[5]; [20]
  Pigweed plant response rating: 100
[6]; [19]
  Plant response rating, Ragweed: 0
[6]; [20]
  Ragweed plant response rating: 0
[7]
  Plant response rating, Barnyardgrass: 40
[8]
  Plant response rating, Ducksalad: 95
[9]
  Plant response rating, Rice: 40
[10]
  Plant response rating, Sedge, Umbrella: 95
[11]; 125 g ai/ha, scale of 0 to 100
  Plant response rating, Blackgrass: 90
[11]; 16 g ai/ha, scale 0 to 100
  Plant response rating, Blackgrass: 5
[11]; 31 g ai/ha, scale 0 to 100
  Plant response rating, Blackgrass: 15
[11]; 62 g ai/ha, scale 0 to 100
  Plant response rating, Blackgrass: 85
[12]; 125 g ai/ha, scale of 0 to 100
  Plant response rating, Corn: 10
[12]; 16 g ai/ha, scale 0 to 100
  Plant response rating, Corn: 0
[12]; 31 g ai/ha, scale 0 to 100
  Plant response rating, Corn: 0
[12]; 62 g ai/ha, scale 0 to 100
  Plant response rating, Corn: 0
[13]; 125 g ai/ha, scale of 0 to 100
  Plant response rating, Crabgrass, Large: 98
[13]; 16 g ai/ha, scale 0 to 100
  Plant response rating, Crabgrass, Large: 75
[13]; 31 g ai/ha, scale 0 to 100
  Plant response rating, Crabgrass, Large: 98
[13]; 62 g ai/ha, scale 0 to 100
  Plant response rating, Crabgrass, Large: 100
[14]; 125 g ai/ha, scale of 0 to 100
  Plant response rating, Foxtail, Giant: 85
[14]; 31 g ai/ha, scale 0 to 100
  Plant response rating, Foxtail, Giant: 5
[14]; 62 g ai/ha, scale 0 to 100
  Plant response rating, Foxtail, Giant: 60
[15]; 125 g ai/ha, scale of 0 to 100
  Plant response rating, Oilseed Rape: 15
[15]; 31 g ai/ha, scale 0 to 100
  Plant response rating, Oilseed Rape: 0
[15]; 62 g ai/ha, scale 0 to 100
  Plant response rating, Oilseed Rape: 0
[16]; 125 g ai/ha, scale of 0 to 100
  Plant response rating, Ragweed: 50
[16]; 31 g ai/ha, scale 0 to 100
  Plant response rating, Ragweed: 0
[16]; 62 g ai/ha, scale 0 to 100
  Plant response rating, Ragweed: 5
[17]; 125 g ai/ha, scale of 0 to 100
  Plant response rating, Ryegrass, Italian: 40
[17]; 31 g ai/ha, scale 0 to 100
  Plant response rating, Ryegrass, Italian: 5
[17]; 62 g ai/ha, scale 0 to 100
  Plant response rating, Ryegrass, Italian: 15
[18]; 125 g ai/ha, scale of 0 to 100
  Plant response rating, Soybean: 10
[18]; 31 g ai/ha, scale 0 to 100
  Plant response rating, Soybean: 5
[18]; 62 g ai/ha, scale 0 to 100
  Plant response rating, Soybean: 5
